Source: patent US20200002283A1, “PYRAZOLE DERIVATIVES HAVING ACTIVITY AGAINST PAIN” (priority 2016, published 2020)
pKi: −log10 of the molar value. Like-named read-outs stand apart in the source and are kept apart here.

Assays:
[1] = molecular target: Human α2δ-1 subunit of Cav2.2 calcium channel (Homo sapiens, UniProt P54289); assay: Human α2δ-1 subunit of Cav2.2 calcium channel assay ([3H]-Gabapentin binding)
Experimental: Human α2δ-1 Subunit of Cav2.2 Calcium Channel Assay
Human α2δ-1 enriched membranes (2.5 μg) were incubated with 15 nM of radiolabeled [3H]-Gabapentin in assay buffer containing Hepes-KOH 10 mM, pH 7.4. NSB (non specific binding) was measured by adding 10 μM pregabalin. After 60 min incubation at 27° C., binding reaction was terminated by filtering through Multiscreen GF/C (Millipore) presoaked in 0.5% polyethyleneimine in Vacuum Manifold Station, followed by 3 washes with ice-cold filtration buffer containing 50 mM Tris-HCl, pH 7.4. Filter plates were dried at 60° C. for 1 hour and 30 μl of scintillation cocktail were added to each well before radioactivity reading. Readings were performed in a Trilux 1450 Microbeta radioactive counter (Perkin Elmer).

human μ-opioid receptor = molecular target: T1, human μ-opioid receptor (Homo sapiens, UniProt P35372); assay: Human μ-opioid receptor radioligand assay ([3H]-DAMGO); assay type: binding
T1 construct: expressed in transfected cells; host or cells: CHO-K1
T1 sequence (P35372 whole entry): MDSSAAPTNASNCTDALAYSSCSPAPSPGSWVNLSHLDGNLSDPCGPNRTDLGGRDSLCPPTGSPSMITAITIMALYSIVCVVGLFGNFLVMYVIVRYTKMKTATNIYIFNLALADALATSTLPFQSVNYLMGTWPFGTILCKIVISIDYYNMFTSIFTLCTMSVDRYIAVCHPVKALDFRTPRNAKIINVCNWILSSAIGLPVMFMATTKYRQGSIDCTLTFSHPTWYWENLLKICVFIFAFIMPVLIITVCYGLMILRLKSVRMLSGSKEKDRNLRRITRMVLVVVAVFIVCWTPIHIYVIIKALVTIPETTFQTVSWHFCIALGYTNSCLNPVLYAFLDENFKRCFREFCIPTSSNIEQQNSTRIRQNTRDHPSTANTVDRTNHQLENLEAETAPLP
Experimental: Human μ-Opioid Receptor Radioligand Assay
To investigate binding properties of test compounds to human μ-opioid receptor, transfected CHO-K1 cell membranes and [^3H]-DAMGO (Perkin Elmer, ES-542-C), as the radioligand, were used. The assay was carried out with 20 μg of membrane suspension, 1 nM of [^3H]-DAMGO in either absence or presence of either buffer or 10 μM Naloxone for total and non-specific binding, respectively. Binding buffer contained Tris-HCl 50 mM, MgCl2 5 mM at pH 7.4. Plates were incubated at 27° C. for 60 minutes. After the incubation period, the reaction mix was then transferred to MultiScreen HTS, FC plates (Millipore), filtered and plates were washed 3 times with ice-cold 10 mM Tris-HCL (pH 7.4). Filters were dried and counted at approximately 40% efficiency in a MicroBeta scintillation counter (Perkin-Elmer) using EcoScint liquid scintillation cocktail.

[2] = human α2δ-1 enriched membranes, 15 nM [3H]-Gabapentin, read-out: α2δ-1 binding
[3] = transfected CHO-K1 cell membranes, 1 nM [3H]-DAMGO, read-out: μ binding

Human α2δ-1 subunit of Cav2.2 calcium channel, sequence (P54289 25-1103): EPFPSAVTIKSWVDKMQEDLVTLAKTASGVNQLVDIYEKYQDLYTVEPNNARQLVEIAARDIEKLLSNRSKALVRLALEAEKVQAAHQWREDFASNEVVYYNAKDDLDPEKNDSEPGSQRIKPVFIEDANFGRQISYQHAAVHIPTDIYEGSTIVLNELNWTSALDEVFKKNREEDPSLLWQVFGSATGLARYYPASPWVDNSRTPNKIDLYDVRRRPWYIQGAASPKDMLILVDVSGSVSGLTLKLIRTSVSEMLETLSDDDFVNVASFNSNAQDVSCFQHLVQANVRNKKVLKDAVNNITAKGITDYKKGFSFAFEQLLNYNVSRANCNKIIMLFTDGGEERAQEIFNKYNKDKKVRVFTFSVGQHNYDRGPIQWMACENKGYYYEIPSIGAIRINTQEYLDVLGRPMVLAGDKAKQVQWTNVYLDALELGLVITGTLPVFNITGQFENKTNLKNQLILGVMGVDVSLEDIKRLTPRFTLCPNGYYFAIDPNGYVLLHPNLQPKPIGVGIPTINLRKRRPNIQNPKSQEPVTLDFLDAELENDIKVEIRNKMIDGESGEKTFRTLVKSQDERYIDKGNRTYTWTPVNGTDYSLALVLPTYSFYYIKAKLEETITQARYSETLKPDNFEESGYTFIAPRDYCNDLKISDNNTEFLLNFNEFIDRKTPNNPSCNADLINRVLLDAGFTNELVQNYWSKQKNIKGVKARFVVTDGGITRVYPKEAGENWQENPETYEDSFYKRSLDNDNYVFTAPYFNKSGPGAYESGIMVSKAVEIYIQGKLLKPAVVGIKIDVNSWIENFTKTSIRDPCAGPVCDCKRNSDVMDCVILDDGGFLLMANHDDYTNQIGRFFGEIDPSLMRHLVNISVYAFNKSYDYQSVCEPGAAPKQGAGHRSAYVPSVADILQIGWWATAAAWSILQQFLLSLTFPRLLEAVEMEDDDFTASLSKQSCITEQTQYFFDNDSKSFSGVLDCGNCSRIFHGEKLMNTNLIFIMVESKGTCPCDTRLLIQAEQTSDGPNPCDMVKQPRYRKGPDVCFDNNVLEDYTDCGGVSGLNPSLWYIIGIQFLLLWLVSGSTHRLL

## CC(N)c1cc(Cc2ccc(O)c(F)c2)n(-c2ccc(Cl)cc2Cl)n1 (stereo not shown) [Example 52, 4-{[3-(1-Aminoethyl)-1-(2,4-dichlorophenyl)-1H-pyrazol-5-yl]methyl}-2-fluorophenol]
[1]
  pKi: > 6.30
Human μ-opioid receptor
  pKi: > 7.00

## NCc1cc(Cc2ccccc2)n(-c2cccc(O)c2)n1 [Example 36, 3-[3-(Aminomethyl)-5-benzyl-1H-pyrazol-1-yl]phenol]
[1]; [2]
  pKi: 5.30 to 5.52
Human μ-opioid receptor; [3]
  pKi: < 6.30

## COc1ccc(Cc2cc(CN)nn2-c2ccc(Cl)cc2Cl)cc1 [Example 1, [1-(2,4-Dichlorophenyl)-5-(4-methoxybenzyl)-1H-pyrazol-3yl]methanamine]
[1]
  pKi: > 6.30
Human μ-opioid receptor
  pKi: 6.30 to 7.00

## CC(N)c1cc(C(C)(C)c2ccc(O)cc2)n(-c2ccc(Cl)cc2Cl)n1 (stereo not shown) [Example 55, 4-{2-[3-(1-Aminoethyl)-1-(2,4-dichlorophenyl)-1H-pyrazol-5-yl]propan-2-yl]phenol]
[1]; [2]
  pKi: 5.52 to 6.30
Human μ-opioid receptor; [3]
  pKi: < 6.30

## NC(CN1CCCCC1)c1cc(Cc2ccc(O)cc2)n(-c2ccc(Cl)cc2Cl)n1 (stereo not shown) [Example 72, 4-({3-[1-Amino-2-(piperidin-1-yl)ethyl]-1-(2,4-dichlorophenyl)-1H-pyrazol-5-yl}methyl)phenol]
[1]
  pKi: < 5.30
Human μ-opioid receptor
  pKi: 6.30 to 7.00

## CC(N)c1cc(Cc2ccc(O)cc2)n(C2CCOCC2)n1 (stereo not shown) [Example 66, 4-{[3-(1-Aminoethyl)-1-(tetrahydro-2H-pyran-4-yl)-1H-pyrazol-5-yl]methyl}phenol]
[1]; [2]
  pKi: < 5.30
Human μ-opioid receptor; [3]
  pKi: < 6.30

## NC(CO)c1cc(Cc2ccc(O)cc2)n(-c2ccc(Cl)cc2Cl)n1 (stereo not shown) [Example 71, 4-{[3-(1-Amino-2-hydroxyethyl)-1-(2,4-dichlorophenyl)-1H-pyrazol-5-yl]methyl}phenol]
[1]
  pKi: < 5.30
Human μ-opioid receptor
  pKi: 6.30 to 7.00

## CC(C)Cn1nc(CN)cc1Cc1ccc(O)cc1 [Example 44, 4-{[3-(Aminomethyl)-1-isobutyl-1H-pyrazol-5-yl]methyl}phenol]
[1]
  pKi: > 6.30
Human μ-opioid receptor
  pKi: < 6.30

## COc1ccc(Cc2cc(CN)nn2Cc2ccccc2)cc1 [Example 13, [1-Benzyl-5-(4-methoxybenzyl)-1H-pyrazol-3-yl]methanamine]
[1]; [2]
  pKi: 5.52 to 6.30
Human μ-opioid receptor; [3]
  pKi: < 6.30

## COc1ccc(Cc2cc(CN)nn2-c2ccccn2)cc1 [Example 20, [5-(4-Methoxybenzyl)-1-(pyridin-2-yl)-1H-pyrazol-3-yl]methanamine]
[1]; [2]
  pKi: 5.30 to 5.52
Human μ-opioid receptor; [3]
  pKi: < 6.30

## NCc1cc(Cc2ccc(O)cc2)n(Cc2ccc(Cl)cc2Cl)n1 [Example 48]
[1]; [2]
  pKi: 5.52 to 6.30
Human μ-opioid receptor; [3]
  pKi: < 6.30

## NCc1cc(Cc2ccc(O)cc2)n(-c2ccccc2Cl)n1 [Example 39, 4-{[3-(Aminomethyl)-1-(2-chlorophenyl)-1H-pyrazol-5-yl]methyl}phenol]
[1]; [2]
  pKi: 5.52 to 6.30
Human μ-opioid receptor; [3]
  pKi: < 6.30

## CCC(CN)c1cc(Cc2ccc(O)cc2)n(-c2ccc(Cl)cc2Cl)n1 (stereo not shown) [Example 60, 4-{[3-(1-Aminobutan-2-yl)-1-(2,4-dichlorophenyl)-1H-pyrazol-5-yl]methyl}phenol]
[1]
  pKi: < 5.30
Human μ-opioid receptor
  pKi: > 7.00

## NCc1cc(Cc2ccc(O)cc2)n(-c2ccccn2)n1 [Example 43, 4-{[3-(Aminomethyl)-1-(pyridin-2-yl)-1H-pyrazol-5-yl]methyl}phenol]
[1]; [2]
  pKi: < 5.30
Human μ-opioid receptor; [3]
  pKi: < 6.30

## COc1ccc(Cc2cc(CN)nn2Cc2ccc(Cl)cc2)cc1 [Example 12, [1-(4-Chlorobenzyl)-5-(4-methoxybenzyl)-1H-pyrazol-3-yl]methanamine]
[1]; [2]
  pKi: 5.52 to 6.30
Human μ-opioid receptor; [3]
  pKi: < 6.30

## CCOc1ccc(-n2nc(CN)cc2Cc2ccc(O)cc2)c(Cl)c1 [Example 7, 4-{[3-(Aminomethyl)-1-(2-chloro-4-ethoxyphenyl)-1H-pyrazol-5-yl]methyl}phenol]
[1]
  pKi: 5.52 to 6.30
Human μ-opioid receptor
  pKi: > 7.00

## CCC(N)c1cc(Cc2ccc(OC)cc2)n(-c2ccc(Cl)cc2Cl)n1 (stereo not shown) [Example 32, 1-[1-(2,4-Dichlorophenyl)-5-(4-methoxybenzyl)-1H-pyrazol-3-yl]propan-1-amine]
[1]; [2]
  pKi: < 5.30
Human μ-opioid receptor; [3]
  pKi: < 6.30
